Source: patent US10633375B2, “Oxopicolinamide derivative, preparation method therefor and pharmaceutical use thereof” (Jiangsu Hengrui Medicine Co., Ltd., priority 2016, dated 2020)
Where “and” joins values, the source holds several entries; their conditions need not be identical. Identical values can stand only once.

Key:
human blood = assay: In vitro anticoagulant effect on human blood (APTT, CT2); conditions: Table 2; concentration corresponding to 2 times the APTT of the blank control, human plasma
How it was run: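 Citrated human plasma (3.8% sodium citrate, 1:9) spiked with compound serially diluted in 100% DMSO (0.3–3000 μM dilution series; DMSO blank) and APTT measured on a coagulation analyser. CT2 is the compound concentration doubling blank APTT, from curve fitting.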

[1] = Pharmacokinetics assay in cynomolgus monkeys; format: in vivo; conditions: male, cynomolgus monkey, plasma, po, intragastric, 15 mg/kg; for Vd/F: read-out: Apparent Distribution Volume Vz/F; for AUC: read-out: Area Under Curve AUC; for CL/F: read-out: Clearance CLz/F; for half-life: read-out: Half-Life T½ (converted); for MRT: read-out: Mean Residence Time MRT; for Cmax: read-out: Plasma Concentration Cmax
From the text: (§1) Test Example 4: Determination of APTT Value and Pharmacokinetic Assay in Cynomolgus Monkey
Cynomolgus monkeys were used as test animals. […] The pharmacokinetic behavior of the compounds of the present invention was studied and evaluated in the cynomolgus monkeys.
(§2) Six male cynomolgus monkeys (101, 102, 103, 201, 202 and 203) were purchased from Guangxi Xiongsen Primate Experimental Animal Breeding Development Co., Ltd.
(§3) Compounds of Example 5 and Example 108.
(§4) 4. Preparation of the Test Compounds
(§5) A certain amount of the test compound was weighed, and added with 2% by volume of DMSO, 78% by volume of PEG400 and 20% CMC-Na (0.5%) to prepare a 3.0 mg/mL colorless, clear and transparent solution.
(§6) After an overnight fast, cynomolgus monkeys were intragastrically administered at a dose of 15.0 mg/kg and an administration volume of 5.0 mL/kg.
7. Test Protocol of Pharmacokinetics Assay in Cynomolgus Monkeys
1.0 mL of blood was taken from the forelimb vein before administration and at 0.25, 0.5, 1, 2, 4, 6, 8, 12 and 24 hours after administration. The samples were stored in heparin anticoagulation tubes, and centrifuged for 10 minutes at 3500 rpm to separate the blood plasma. The plasma samples were stored at −80° C. The […] were fed 2 hours after administration.
(§7) The content of the test compound in the plasma of cynomolgus monkeys after intragastric administration of different concentrations of the drug was determined: 25 μL of cynomolgus monkey plasma at each time after administration was taken and added with 30 μL (100 ng/mL) of the internal standard solution of camptothecin and 225 μL of acetonitrile, shaken vertically for 5 minutes, and centrifuged for 10 minutes (4000 rpm). 1.0 μL of the supernatant was taken from the plasma samples for LC/MS/MS analysis.
7.2. Results of Pharmacokinetic Parameters in Cynomolgus Monkeys
Pharmacokinetic parameters of the compounds of the present invention in cynomolgus monkeys are shown below.

[2] = Determination of APTT value in cynomolgus monkeys; format: in vivo; conditions: cynomolgus monkey, individual animals; for APTT (sec) 1 hour / APTT (sec) 2 hours / APTT (sec) 4 hours / APTT (sec) 8 hours / APTT (sec) 12 hours: 15.0 mg/kg intragastric; for APTT (sec) 1 hour: 1 hour after administration; for APTT (sec) 2 hours: 2 hours after administration; for APTT (sec) 4 hours: 4 hours after administration; for APTT (sec) 8 hours: 8 hours after administration; for APTT (sec) 12 hours: 12 hours after administration; for APTT (sec) Before Administration: baseline before 15.0 mg/kg intragastric dose
Experimental: as §1, §2, §3, §4, §5, §6
6. Test Protocol for Determination of APTT Value in Cynomolgus Monkeys
6.1 Experimental Materials
Reagents: APTT reagent (Activated partial thromboplastin time assay kit, SIEMENS, Art. No. B4218-1), PEG-400 and CMC-Na;
Instrument: Coagulation instrument (SYSMEX, CA-500).
6.2 Collection and Processing of APTT Plasma Sample
Blood was taken before administration and at 1 hour, 2 hours, 4 hours, 8 hours and 12 hours after administration. About 1.8 mL of blood was taken through femoral vein puncture in each animal for each time. Anticoagulated sodium citrate was added. After the blood sample was collected, it was placed in a pre-labeled centrifuge tube, and the plasma was separated by centrifugation (centrifugation conditions: 3500 rpm, 10 minutes, 2-8° C.). The plasma was stored in a −80° C. refrigerator for APTT assay.
6.3 APTT Assay Results in Cynomolgus Monkeys

[3] = Pharmacokinetics assay in rats after intragastrical administration; format: in vivo, Sprague-Dawley (SD) rats; conditions: both sexes, Sprague-Dawley, rat, plasma, po, SD rats, intragastric, 2 mg/kg; for Vd/F: read-out: Apparent Distribution Volume Vz/F; for AUC: read-out: Area Under Curve AUC; for CL/F: read-out: Clearance CLz/F; for half-life: read-out: Half-Life T½ (converted); for MRT: read-out: Mean Residence Time MRT; for Cmax: read-out: Plasma Concentration Cmax
From the text: Test Example 3. Pharmacokinetics Assay of the Compounds of the Present Invention
Rats were used as test animals. […] The pharmacokinetic behavior of the compounds of the present invention was studied and evaluated in rats.
56 healthy adult Sprague-Dawley (SD) rats, half male and half female, were purchased from SINO-BRITSH SIPPR/BK LAB. ANIMAL LTD., CO, with License No.: SCXK (Shanghai) 2008-0016.
2.3 Preparation of the Test Compounds
A certain amount of the test compound was weighed, and added with 5% by volume of DMSO, 5% by volume of Tween 80 and 90% normal saline to prepare a 0.2 mg/mL colorless, clear and transparent solution.
After an overnight fast, SD rats were intragastrically administered at a dose of 2.0 mg/kg and an administration volume of 10.0 mL/kg.
Blood (0.2 mL) was taken from the orbital sinus before administration and at 0.5, 1.0, 2.0, 4.0, 6.0, 8.0, 11.0 and 24.0 hours after administration. The samples were stored in heparin anticoagulation tubes, and centrifuged for 10 minutes at 3500 rpm at 4° C. to separate the blood plasma. The plasma samples were stored at −20° C. The rats were fed 2 hours after administration.
as §7, with “rats” for “cynomolgus monkeys”, “rat” for “cynomolgus monkey”, “200” for “225”, “3.0” for “1.0”
4. Results of Pharmacokinetic Parameters
Pharmacokinetic parameters of the compounds of the present invention in rats are shown below.

Structure (SMILES)	CT2, concentration doubling APTT (human blood)	Vd/F [1]	AUC [1]	CL/F [1]	half-life [1]	MRT [1]	Cmax [1]	APTT (sec) 1 hour [2]	APTT (sec) 2 hours [2]	APTT (sec) 4 hours [2]	APTT (sec) 8 hours [2]	APTT (sec) 12 hours [2]	APTT (sec) Before Administration [2]	Vd/F [3]	AUC [3]	CL/F [3]	half-life [3]	MRT [3]	Cmax [3]
COc1cn([C@@H](Cc2ccccc2)C(=O)Nc2ccc(C(=O)O)cc2)c(=O)cc1-c1cc(Cl)ccc1C(C)=O [Example 5, (S)-4-(2-(4-(2-acetyl-5-chlorophenyl)-5-methoxy-2-oxopyridin-1(2H)-yl)-3-phenylpropanamido)benzoic acid]	2.0 µM	30.4 ± 12.6 L/kg	4950 ± 2880 ng·h/mL	62 ± 32 mL/min/kg	5.86 ± 1.1 h	9.63 ± 0.78 h	688 ± 560 ng/mL	36.8 s and 25.9 s	33.3 s and 31.4 s and 27.2 s	28.3 s and 26.1 s and 22.2 s	27.3 s and 32.5 s and 24.8 s	28.6 s and 23.8 s and 23.9 s	17.2 s and 17.3 s and 19.1 s	4.98 ± 0.291 L/kg	518 ± 63 ng·h/mL	65.1 ± 8.1 mL/min/kg	0.89 ± 0.08 h	6.64 ± 1.77 h	244 ± 77 ng/mL
CCC(=O)c1ccc(Cl)cc1-c1cc(=O)n([C@@H](CCOC(C)(C)C)C(=O)Nc2ccc(C(=O)O)cc2)cc1OC [Example 108, (S)-4-(4-(tert-butoxy)-2-(4-(5-chloro-2-propionylphenyl)-5-methoxy-2-oxopyridin-1(2H)-yl)butanamido)benzoic acid]	1.4 µM	59.1 ± 26.2 L/kg	2700 ± 1340 ng·h/mL	120 ± 83 mL/min/kg	6.32 ± 1.47 h	8.81 ± 3.65 h	295 ± 102 ng/mL	26.3 s and 31.2 s and 31.9 s	27.5 s and 27.1 s and 28.5 s	28.7 s and 24.1 s and 28.6 s	26.9 s and 20.3 s and 26.3 s	27.3 s and 19 s and 21.5 s	17.5 s and 18.5 s and 17.6 s	44.4 ± 3.45 L/kg	452 ± 44 ng·h/mL	74.3 ± 6.9 mL/min/kg	6.98 ± 1.22 h	7.33 ± 0.48 h	105 ± 23 ng/mL
